Source: patent US7560475B2, “Phenylacetic acid derivative, process for producing the same, and use” (Ono Pharmaceutical Co., Ltd., priority 2003, dated 2009)

Tests used:
7-weeks old male mice = test: Lowering effect of blood cholesterol and blood lipid in mice loaded with high cholesterol diets; format: in vivo; conditions: high cholesterol diet mice, plasma, vehicle administration group defined as 100%
Protocol: High cholesterol diets (CRF-1 solid pellet mixed of 5.5% peanut oil, 1.5% cholesterol, 0.5% cholic acid, Oriental Bio Service) are loaded to 7-weeks old male mice for six days and then the body weight of food-deprived […] are measured, the following various parameter levels are measured. The measurement items are LDL, HDL, TG level, NEFA, and TC level. Mice are divided into five per group based on TC level and the division was performed without bias in the average of other parameters. From the next day to six days in a row, the suspended solution of the compounds in vehicle (0.5% methylcellulose aqueous solution) are orally compellingly administered once daily and the loading of high cholesterol diets is continued. After the next day of termination of final administration (the 7th day of administration onset), plasma lipid (TG HDL, LDL, NEFA, TC level) is measured.
The relative activity of the compounds of the present invention was calculated under the condition that the value of vehicle administration group was defined as 100%. And then HDL cholesterol elevating effect and LDL cholesterol lowering effect of the compound prepared in Example 33 are shown in Table 2.

human PPAR δ = molecular target: T1, human PPAR δ (Homo sapiens, UniProt Q03181); test: Luciferase assay using human PPAR δ (Gal4-PPAR chimeric receptor reporter in CV-1 cells); format: cell-based; conditions: relative to 30 μM carbacyclin defined as 1, 42 hours
T1 construct: expressed in transfected cells; host or cells: CV-1 cells
T1 sequence (Q03181 139-441): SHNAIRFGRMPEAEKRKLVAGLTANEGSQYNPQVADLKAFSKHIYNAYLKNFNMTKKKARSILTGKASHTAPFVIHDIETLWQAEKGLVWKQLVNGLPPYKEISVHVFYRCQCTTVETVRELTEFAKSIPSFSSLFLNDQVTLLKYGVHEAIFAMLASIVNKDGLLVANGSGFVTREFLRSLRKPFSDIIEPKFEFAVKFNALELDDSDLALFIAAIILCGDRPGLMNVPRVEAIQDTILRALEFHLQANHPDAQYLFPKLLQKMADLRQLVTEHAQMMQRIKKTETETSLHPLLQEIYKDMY

[1] = dose 3 mg/kg orally once daily for six days
[2] = dose 10 mg/kg orally once daily for six days
[3] = dose 30 mg/kg orally once daily for six days

SMILES: Cc1sc(N2CCC(C(F)(F)F)CC2)nc1CCOc1cccc(CC(=O)O)c1F [Example 33, [2-fluoro-3-(2-{5-methyl-2-[4-(trifluoromethyl)piperidin-1-yl]-1,3-thiazol-4-yl}ethoxy)phenyl]acetic acid]
- HDL cholesterol elevating effect (7-weeks old male mice; [1]): 150.0%
- LDL cholesterol lowering effect (7-weeks old male mice; [1]): 82.5%
- HDL cholesterol elevating effect (7-weeks old male mice; [2]): 162.7%
- LDL cholesterol lowering effect (7-weeks old male mice; [2]): 75.7%
- HDL cholesterol elevating effect (7-weeks old male mice; [3]): 157.3%
- LDL cholesterol lowering effect (7-weeks old male mice; [3]): 72.3%
- Fold increase of transcriptional activation (human PPAR δ; final concentration 0.1 μM): 0.47
- Fold increase of transcriptional activation (human PPAR δ; final concentration 0.3 μM): 1.08
- Fold increase of transcriptional activation (human PPAR δ; final concentration 1.0 μM): 1.23
